The experiment addresses T1, recombinant human liver GK (Homo sapiens, UniProt P35557).
T1 construct: made in house; host or cells: E. coli
T1 sequence (P35557 1-466 isoform P35557-2): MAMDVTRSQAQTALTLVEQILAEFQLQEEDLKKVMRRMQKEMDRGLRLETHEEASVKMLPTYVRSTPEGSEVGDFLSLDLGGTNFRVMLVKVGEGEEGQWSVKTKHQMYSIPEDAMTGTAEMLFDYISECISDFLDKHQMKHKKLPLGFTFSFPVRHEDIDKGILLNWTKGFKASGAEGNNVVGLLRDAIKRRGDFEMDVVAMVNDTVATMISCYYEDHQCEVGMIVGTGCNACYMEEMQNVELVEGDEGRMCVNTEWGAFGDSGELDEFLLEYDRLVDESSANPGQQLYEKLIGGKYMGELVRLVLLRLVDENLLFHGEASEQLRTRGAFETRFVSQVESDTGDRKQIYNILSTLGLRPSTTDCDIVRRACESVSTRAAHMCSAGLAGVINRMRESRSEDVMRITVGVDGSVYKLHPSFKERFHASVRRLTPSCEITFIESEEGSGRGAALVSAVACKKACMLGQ
The experiment can be described thus: Glucokinase-activating effect (Thio-NADH, G6PDH-coupled assay). It counts as biochemical. To be noted: final glucose 2.5 mM, 30° C; for Emax(%): OD level of DMSO control = 100%. An excerpt:
The excellent glucokinase-activating effect of the compounds of formula (I) may be determined by a method described in literature (for example, Diabetes, Vol. 45, pp. 1671-1677, 1996), or in accordance with it.
The glucokinase activity may be determined not by directly measuring glucose-6-phosphate but by measuring the level of Thio-NADH, which is produced when a reporter enzyme, glucose-6-phosphate dehydrogenase produces phosphogluconolactone from glucose-6-phosphate, and based on the level, the degree of glucokinase activation by the compound tested may be determined.
In this assay, used was a recombinant human liver GK, which was expressed by E. coli as a FLAG fusion protein therein and was purified by ANTIFLAG M2 AFFINITY GEL (Sigma).
Using a flat-bottomed 96-well plate, the assay was carried out at 30° C. 69 μl of an assay buffer (25 mM Hepes Buffer/pH=7.2, 2 mM MgCl2, 1 mM ATP, 0.5 mM TNAD, 1 mM dithiothreitol) was put into the plate, and 1 μl of a DMSO solution of the compound or DMSO alone as a control was added thereto. Next, 20 μl of an enzyme mixture (FLAG-GK, 20 U/ml G6PDH) cooled in ice was added to it, and 10 μl of a substrate, 25 mM glucose was added to it, and the reaction was initiated (final glucose concentration=2.5 mM).
After the start of the reaction, the increase in the absorbance at 405 nm was measured for 12 minutes at intervals of 30 seconds, and the increase for the first 5 minutes was used for assessing the compound tested. FLAG-GK was added so that the absorbance increase after 5 minutes in the presence of 1% DMSO could be from 0.04 to 0.06.
The OD level of the DMSO control was set as 100%; and the OD level of the test compound at different concentrations was determined. From the OD level at each concentration, Emax (%) and EC50 (μM) were computed and used as the index of the GK-activating potency of the compound.
The GK activating effect of the compounds of the invention was measured according to the method as above, and the results are shown in Table 5 below.

The mark [1] stands for this setting: racemates, comparison with WO2007/007910.

These results are taken from patent US8609699B2, “Oxotetrahydrofuran-2-yl-benzimidazole derivative” (MSD K.K., priority 2008, dated 2013).

The structures appear in SMILES notation.

For `O=C1CCC(c2cc3[nH]c(-c4ccccn4)nc3cc2Oc2ccc(C(=O)N3CCC3)cc2)O1` (racemic) [Example 1 Racemate, 5-{5-[4-(azetidin-1-ylcarbonyl)phenoxy]-2-pyridin-2-yl-1H-benzimidazol-6-yl}dihydrofuran-2(3H)-one], under setting [1], the EC50 (in general, the concentration needed to bring the measured effect to its halfway point) came out at 530 nM.

In the case of `CN(C)C(=O)Cc1ccc(Oc2cc3nc(-c4ccccn4)[nH]c3cc2C2CCC(=O)O2)cc1` (racemic) [Example 7 Racemate, N,N-dimethyl-2-(4-{[6-(5-oxotetrahydrofuran-2-yl)-2-pyridin-2-yl-1H-benzimidazol-5-yl]oxy}phenyl)acetamide], the EC50 under setting [1] amounted to 470 nM.

In the case of `COCc1ccc(Oc2cc3nc(-c4ccccn4)[nH]c3cc2C2CCC(=O)O2)cn1` (racemic) [Example 11 Racemate, 5-(5-{[6-(methoxymethyl)pyridin-3-yl]oxy}-2-pyridin-2-yl-1H-benzimidazol-6-yl)dihydrofuran-2(3H)-one], the EC50 under setting [1] came to 490 nM.

Consider `O=C1CCC(c2cc3[nH]c(-c4ccccn4)nc3cc2Oc2ccc(C(=O)N3CCC3)cc2)O1` (single isomer, unassigned) [Example 1 A, 5-{5-[4-(azetidin-1-ylcarbonyl)phenoxy]-2-pyridin-2-yl-1H-benzimidazol-6-yl}dihydrofuran-2(3H)-one], for which the “Emax(%)” value (separated enantiomers, listed as 1 A) is reported as 541%. In addition, for the setting “separated enantiomers”, the EC50 amounted to 1910 nM.

Consider `O=C1CCC(c2cc3[nH]c(-c4ccccn4)nc3cc2Oc2ccc(C(=O)N3CCC3)nc2)O1` (single isomer, unassigned) [Example 2 A, 5-(5-{[6-(azetidin-1-ylcarbonyl)pyridin-3-yl)oxy}-2-pyridin-2-yl-1H-benzimidazol-6-yl)dihydrofuran-2(3H)-one], for which the “Emax(%)” value (separated enantiomers, listed as 2 A) was determined as 476%. Moreover, under “separated enantiomers”, the EC50 came out at 15100 nM.

For `O=C1CCC(c2cc3[nH]c(-c4ccccn4)nc3cc2Oc2ccc(C(=O)N3CCC3)nc2)O1` (single isomer, unassigned) [Example 2 B, 5-(5-{[6-(azetidin-1-ylcarbonyl)pyridin-3-yl)oxy}-2-pyridin-2-yl-1H-benzimidazol-6-yl)dihydrofuran-2(3H)-one], the “Emax(%)” value (separated enantiomers, listed as 2 B) was found to be 704%. For the same compound, the concentration giving a half-maximal response (EC50) (separated enantiomers) was found to be 310 nM.

As for `CN(C)C(=O)c1ccc(Oc2cc3nc(-c4ccccn4)[nH]c3cc2C2CCC(=O)O2)cn1` (single isomer, unassigned) [Example 4 A, N,N-dimethyl-5-{[6-(5-oxotetrahydrofuran-2-yl)-2-pyridin-2-yl-1H-benzimidazol-5-yl]oxy}pyridine-2-carboxamide], the “Emax(%)” value (separated enantiomers, listed as 4 A) turned out to be 432%. For the same compound, the EC50 (separated enantiomers) was found to be 15900 nM.

Regarding `CN(C)C(=O)c1ccc(Oc2cc3nc(-c4ccccn4)[nH]c3cc2C2CCC(=O)O2)cn1` (single isomer, unassigned) [Example 4 B, N,N-dimethyl-5-{[6-(5-oxotetrahydrofuran-2-yl)-2-pyridin-2-yl-1H-benzimidazol-5-yl]oxy}pyridine-2-carboxamide], the “Emax(%)” value (separated enantiomers, listed as 4 B) turned out to be 668%. In addition, the EC50 (separated enantiomers) is 280 nM.

In the case of `CCNC(=O)c1ccc(Oc2cc3nc(-c4ccccn4)[nH]c3cc2C2CCC(=O)O2)cn1` (single isomer, unassigned) [Example 6 A, N-ethyl-5-{[6-(5-oxotetrahydrofuran-2-yl)-2-pyridin-2-yl-1H-benzimidazol-5-yl]oxy}pyridine-2-carboxamide], the “Emax(%)” value (separated enantiomers, listed as 6 A) was 553%. Moreover, the EC50 (separated enantiomers) turned out to be 1830 nM.

Regarding `CCNC(=O)c1ccc(Oc2cc3nc(-c4ccccn4)[nH]c3cc2C2CCC(=O)O2)cn1` (single isomer, unassigned) [Example 6 B, N-ethyl-5-{[6-(5-oxotetrahydrofuran-2-yl)-2-pyridin-2-yl-1H-benzimidazol-5-yl]oxy}pyridine-2-carboxamide], the “Emax(%)” value (separated enantiomers, listed as 6 B) was determined as 781%. The EC50 (separated enantiomers) is 240 nM.
